Reference: patent US4813876A, “Method of treating living pulp tissue” (Dentsply Research & Development Corp., priority 1987, dated 1989)

System: L929 mouse fibroblast cells
Assay: Tissue culture MEM elution test (cytotoxicity)
Assay type: cell-based
Conditions: 25 mg
Method: One accepted method for determining the necessary biocompatibility of various compositions toward living tissue is an in vitro cell culture biocompatibility method wherein samples of the compositions to be tested are extracted in a bovine serum solution in a Minimum Essential Medium (MEM), whereafter the bovine serum solution and specified animal cells, such as human (WI-38), L929 mouse fibroblast cells or their equivalent, are incubated in a MEM for a predetermined period of time, and the incubated cells are visually observed and graded for cytotoxic manifestations. See, for example, R. E. Wilsnack, Quantitative Cell Culture Biocompatibility Testing of Medical Devices and Correlation To Animal Tests, Biomat, Med. Dev. Art. Org., 4(3& 4), 235-261 (1976). In connection with the present compositions, the in vitro cell culture method preferably is performed using L929 mouse fibroblast cells which have been cultured in a growth medium consisting of 5% bovine serum solution in MEM, wherein the bovine serum solution initially was used to extract a specified mass of cured or uncured material, as the case may be, and wherein the cells were incubated at 37°±2° C. for a specified period of time, e.g., 24, 48 or 72 hours. The degree of toxicity may be stated as a function of the percentage of the cells which have been lysed or fixed over the test period. […]

[Ca+2].[OH-].[OH-] [Calcium Hydroxide, calcium hydroxide]
Cytotoxic manifestation (footnote ***) (2 hours after extract placed on cells): All cells dead after 2 hours | 24 hr results (% Lysed or fixed) (Table I, curing time 0 s, 24 hr): 100%
